{
  "source": "paper PMC5979572",
  "about": "“Imine Deaminase Activity and Conformational Stability of UK114, the Mammalian Member of the Rid Protein Family Active in Amino Acid Metabolism” (International Journal of Molecular Sciences, 2018)",
  "molecules": {"B1": {"name": "recombinant goat UK114 (Capra hircus), thrombin-cleaved (enzyme, Capra hircus (goat))", "chain": "GSHMSSLVRRIISTAKAPAAIGPYSQAVLVDRTIYISGQLGMDPASGQLVPGGVVEEAKQALTNIGEILKAAGCDFTNVVKATVLLADINDFSAVNDVYKQYFQSSFPARAAYQVAALPKGGRVEIEAIAVQGPLTTASL", "notes": "they precede the initiator methionine of UK114; also called RidA; not shown: His6, N-terminal, cleaved"}},
  "key": {"[1]": {"biological_target": "T1, UK114 (Capra hircus, UniProt P80601)", "T1 construct": "gene RIDA; full length 137 residues, recombinant from E. coli (pET-15b), N-terminal His-tag cut by thrombin leaving GSH before Met1; homotrimer", "T1 sequence (P80601 1-137)": "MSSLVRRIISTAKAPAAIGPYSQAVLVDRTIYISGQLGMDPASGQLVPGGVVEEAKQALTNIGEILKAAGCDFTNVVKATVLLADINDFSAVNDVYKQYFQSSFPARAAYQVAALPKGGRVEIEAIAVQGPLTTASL", "assay": "decrease of semicarbazone formation rate, […] nm, imino acid generated in situ", "format": "biochemical", "settings": "50 mM sodium pyrophosphate pH 8.7, 25 °C, 10 mM semicarbazide, catalase"}, "[2]": {"biological_target": "T2, D-amino acid oxidase (DAAO) (Sus scrofa, UniProt P00371)", "T2 construct": "gene DAO; native, purified from pig kidneys", "T2 sequence (P00371 whole entry)": "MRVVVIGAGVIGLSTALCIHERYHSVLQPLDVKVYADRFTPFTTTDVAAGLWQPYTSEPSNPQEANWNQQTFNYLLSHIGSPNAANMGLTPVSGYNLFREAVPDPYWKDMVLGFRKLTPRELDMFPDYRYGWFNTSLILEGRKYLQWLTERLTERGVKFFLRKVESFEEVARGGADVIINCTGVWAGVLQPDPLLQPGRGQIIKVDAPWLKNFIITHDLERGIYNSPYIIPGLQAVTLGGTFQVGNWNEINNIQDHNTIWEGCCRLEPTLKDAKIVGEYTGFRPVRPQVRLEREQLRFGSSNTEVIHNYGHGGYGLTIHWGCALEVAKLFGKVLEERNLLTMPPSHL", "assay": "H2O2 production (HRP / o-dianisidine) and semicarbazone formation", "format": "biochemical", "settings": "50 mM sodium pyrophosphate pH 8.7, 25 °C"}, "[3]": {"biological_target": "the molecule itself", "assay": "SEC; analytical gel filtration on a calibrated Superdex 75 (10/30) column equilibrated with 0.9% NaCl; standards BSA dimer, BSA monomer, carbonic anhydrase, cytochrome c"}},
  "data": [
    {"molecule": "CC(C)CC(=N)C(=O)O", "note": "[imino acid derived from Leu]", "values": [
      {"measurement": "decrease of semicarbazone formation rate, 248 nm, imino acid generated in situ", "setting": "[1]; imino acid from 5 mM L-Leu + LAAO or D-Leu + DAAO", "value": "UK114 activity using the imino acid produced by DAAO from D-Leu was indistinguishable"}
    ]},
    {"molecule": "CC(C)C[C@@H](N)C(=O)O", "note": "[D-Leu]", "values": [
      {"measurement": "H2O2 production (HRP / o-dianisidine) and semicarbazone formation", "setting": "[2]", "value": "Semicarbazone formation was observed using D-Ala, D-Leu, but not D-Ser, D-Thr, or D-Lys"}
    ]},
    {"molecule": "CC(=N)C(=O)O", "note": "[2-iminopropionate]", "values": [
      {"measurement": "decrease of semicarbazone formation rate, 248 nm, imino acid generated in situ", "setting": "[1]; imino acid from 5 mM L-Ala + LAAO or D-Ala + DAAO", "value": "the highest specificity is indeed observed with 2-iminopyruvate (2-iminopropionate)"}
    ]},
    {"molecule": "B1", "values": [
      {"measurement": "stoichiometry N", "setting": "[3]", "value": 3}
    ]}
  ]
}
